Results from patent publication US10986838B2, “Herbicides” (SYNGENTA PARTICIPATIONS AG, priority 2016, dated 2021).

What was measured:
Format in all cases: in vivo
Setaria faberi (SETFA) [1] = experiment: Pre-emergence herbicidal activity (B1); settings: Test 1a, 1000 g/ha, evaluated after 13 days, 5=total damage to plant, 0=no damage to plant
Outline: (§1)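 After one day of cultivation, soil pots were treated pre-emergence by spray with active ingredient in acetone/water (50:50) and 0.5% Tween 20. Evaluation at 13 days used a 0–5 scale, where 5 meant total plant damage.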

Lolium perenne (LOLPE) [2] = experiment: Pre-emergence herbicidal activity (B1); settings: Test 1a, 1000 g/ha, evaluated after 13 days, 5=total damage to plant, 0=no damage to plant
Outline: as §1

[3] = system: Triticum aestivium (TRZAW); experiment: Pre-emergence herbicidal activity (B1); settings: Test 1a, 1000 g/ha, evaluated after 13 days, 5=total damage to plant, 0=no damage to plant
Outline: as §1

Avena fatua (AVEFA) [4] = experiment: Pre-emergence herbicidal activity (B1); settings: Test 1a, 1000 g/ha, evaluated after 13 days, 5=total damage to plant, 0=no damage to plant
Outline: as §1

[5] = system: Alopecurus myosuroides (ALOMY); experiment: Pre-emergence herbicidal activity (B1); settings: Test 1a, 1000 g/ha, evaluated after 13 days, 5=total damage to plant, 0=no damage to plant
Outline: as §1

[6] = system: Echinochloa crus-galli (ECHCG); experiment: Pre-emergence herbicidal activity (B1); settings: Test 1a, 1000 g/ha, evaluated after 13 days, 5=total damage to plant, 0=no damage to plant
Outline: as §1

Setaria faberi (SETFA) [7] = experiment: Post-emergence herbicidal activity (B2); settings: Test B2a, 1000 g/ha, evaluated after 13 days, 5=total damage to plant, 0=no damage to plant
Outline: (§2)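 Scores run from 0 (no damage) to 5 (total plant damage), assessed 13 days after spraying. Seedlings had grown 8 days under controlled glasshouse conditions before treatment with an aqueous spray from an acetone/water (50:50) formulation with 0.5% Tween 20.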

Lolium perenne (LOLPE) [8] = experiment: Post-emergence herbicidal activity (B2); settings: Test B2a, 1000 g/ha, evaluated after 13 days, 5=total damage to plant, 0=no damage to plant
Outline: as §2

[9] = system: Triticum aestivium (TRZAW); experiment: Post-emergence herbicidal activity (B2); settings: Test B2a, 1000 g/ha, evaluated after 13 days, 5=total damage to plant, 0=no damage to plant
Outline: as §2

Avena fatua (AVEFA) [10] = experiment: Post-emergence herbicidal activity (B2); settings: Test B2a, 1000 g/ha, evaluated after 13 days, 5=total damage to plant, 0=no damage to plant
Outline: as §2

[11] = system: Alopecurus myosuroides (ALOMY); experiment: Post-emergence herbicidal activity (B2); settings: Test B2a, 1000 g/ha, evaluated after 13 days, 5=total damage to plant, 0=no damage to plant
Outline: as §2

[12] = system: Echinochloa crus-galli (ECHCG); experiment: Post-emergence herbicidal activity (B2); settings: Test B2a, 1000 g/ha, evaluated after 13 days, 5=total damage to plant, 0=no damage to plant
Outline: as §2

SMILES	SETFA damage score (Setaria faberi (SETFA) [1])	LOLPE damage score (Lolium perenne (LOLPE) [2])	TRAZW damage score [3]	AVEFA damage score (Avena fatua (AVEFA) [4])	ALOMY damage score [5]	ECHCG damage score [6]	SETFA damage score (Setaria faberi (SETFA) [7])	LOLPE damage score (Lolium perenne (LOLPE) [8])	TRAZW damage score [9]	AVEFA damage score (Avena fatua (AVEFA) [10])	ALOMY damage score [11]	ECHCG damage score [12]
Cc1nc(-c2cncc(OC(F)F)c2)ccc1N [Compound A4]	2	1	0	0	0	1	4	1	1	3	1	2
Fc1cncc(-c2ccc(NCCc3ccccc3)c(C(F)(F)F)n2)c1 [Compound A49]	5	1	0	1	0	3	5	3	0	3	0	3
